Test results taken from patent publication US20190125790A1, “USE OF HYPOCHLOROUS ACID AS A TOPICAL ANTIMICROBIAL” (BIIOSMART TECHNOLOGIES LLC, priority 2016, published 2019).

What was measured:
Enterovirus-71 (EV-71) = experiment: Test of viral inactivation, ASTM E1052-96 viruses in suspension; assay type: cell-based; details: 0.04% HOCl aqueous solution; 30 seconds
Klebsiella oxytoca = experiment: Antimicrobial efficacy of HOCl skin cleanser (Table 1); assay type: cell-based; details: 0.01% HOCl; 30 seconds
Escherichia coli = experiment: as above; assay type: cell-based; details: 0.01% HOCl; 30 seconds
host cells = details: 0.04% HOCl aqueous solution
[1] = tested on: all microorganisms tested; experiment: ASTM E2315 Time Kill Assay, summary of Table 3; assay type: cell-based; details: concentration of 0.046%, 30 seconds
Procedure: (§1) Table 3. below represents the efficacy of 0.046% aqueous hypochlorous acid solution in the presence of high organic load. ASTM E2315 Time Kill Assay for Antimicrobial Agents. The study was performed in ATS labs in Minnesota recommended by the U.S. FDA's Tentative Final Monograph for OTC Healthcare Antiseptic Drug. […] Additional times were evaluated: 1 minute, 5 minutes, and 10 minutes, all with and without organic soil (Using 10% whole milk and 5% Fetal Bovine Serum). The trend in the efficiency is maintained under the same proportions.

Acute Oral Toxicity = details: both sexes, rat, in vivo, 5000 mg/Kg, Wistar Rats, 0.05% concentration HOCl aqueous solutions, males and females, read-out: acute median lethal dose LD50
Description: (§2) Table 5. contains the results of several acute and sub-chronic toxicity tests.

Acute Dermal Toxicity = assay type: in vivo; details: Albino New Zealand Rabbits, 0.05% HOCl solution, males and females
Description: as §2

S. pyogenes [2] = experiment: Efficacy at 30 seconds (Table 2); assay type: cell-based; details: 0.01 to 0.05% aqueous solution
[3] = USP <51> Antimicrobial Effectiveness Testing; assay type: cell-based; details: 0.05% HOCl aqueous solution
Description: A 0.05% HOCl aqueous solution is intended for the cleansing and removal of the most common bacteria and viruses associated with skin-to-skin sexually transmitted diseases (pre and post sexual activity) to promote general sexual hygiene.

Human papilloma virus = experiment: Antimicrobial efficacy of HOCl skin cleanser (Table 1); assay type: cell-based; details: 0.01% HOCl; 30 seconds
S. pyogenes [4] = experiment: as above; assay type: cell-based; details: 0.01% HOCl; 30 seconds
Candida albicans = experiment: as above; assay type: cell-based; details: 0.01% HOCl; 30 seconds
[5] = Randomized double blind placebo controlled trial as sexual cleanser; assay type: in vivo, human; details: six months
Description: The purpose of this study was to evaluate the real world use and effect of the solution in a group of 47 willing participants located in Cartagena, Colombia. These willing participants were all active sex workers, whom on a weekly basis, were actively engaged in sexual intercourse with the general public. This demographic was selected as a “high risk” group of individuals that frequently encounter many forms of sexually transmitted infections. Throughout the study, the “HOCl test” group was compared with the “placebo” group in an effort to gauge the efficacy of prevention and treatment for contact-to-contact sexually transmitted infections as well as common infections related to sex. […] The patients were required to complete extensive evaluations regarding their sexual health and lifestyles. The duration of the study was six months.

Herpes Simplex = experiment: Efficacy at 30 seconds (Table 2); assay type: cell-based; details: 0.01 to 0.05% aqueous solution
Salmonella enteritidis = experiment: Antimicrobial efficacy of HOCl skin cleanser (Table 1); assay type: cell-based; details: 0.01% HOCl; 30 seconds
[6] = Non-randomized study of skin ulcers, 822 patients; assay type: in vivo, human; details: 0.046% HOCl aqueous solution
Procedure: A non-randomized, non-placebo controlled study involving 822 patients with a variety of ulcers was conducted. These patients were treated with HOCl aqueous solution (0.046%) as the only therapeutic intervention and followed the patients for six months to evaluate ulcer closure as a marker of therapeutic success.

Enterococcus. faecium = experiment: Antimicrobial efficacy of HOCl skin cleanser (Table 1); assay type: cell-based; details: 0.01% HOCl; 30 seconds
K. pneumoniae - ESBL = experiment: ASTM E2315 Time Kill Assay for Antimicrobial Agents; assay type: cell-based; details: 0.046% HOCl aqueous solution; 30 seconds; high organic load
Procedure: as §1

P. aeruginosa = experiment: as above; assay type: cell-based; details: 0.046% HOCl aqueous solution; 30 seconds; high organic load
Procedure: as §1

Enterobacter aerogenes = experiment: as above; assay type: cell-based; details: 0.046% HOCl aqueous solution; 30 seconds; high organic load
Procedure: as §1

K. oxytoca = experiment: as above; assay type: cell-based; details: 0.046% HOCl aqueous solution; 30 seconds; high organic load
Procedure: as §1

A. baumanii = experiment: as above; assay type: cell-based; details: 0.046% HOCl aqueous solution; 30 seconds; high organic load
Procedure: as §1

E. faecium = experiment: as above; assay type: cell-based; details: 0.046% HOCl aqueous solution; 30 seconds; high organic load
Procedure: as §1

K. pneumoniae NDM-1 = experiment: as above; assay type: cell-based; details: 0.046% HOCl aqueous solution; 30 seconds; high organic load
Procedure: as §1

[7] = Sub. Chronic Toxicity. 90 days; assay type: in vivo
Description: as §2

[8] = tested on: Herpes Simplex Virus type 2 (HSV-2); experiment: Test of viral inactivation, ASTM E1052-96 viruses in suspension; assay type: cell-based; details: 0.04% HOCl aqueous solution; 30 seconds
E. coli NDM-1 = experiment: Efficacy at 30 seconds (Table 2); assay type: cell-based; details: 0.01 to 0.05% aqueous solution
Staphylococcus aureus = experiment: Antimicrobial efficacy of HOCl skin cleanser (Table 1); assay type: cell-based; details: 0.01% HOCl; 30 seconds
[9] = HOCl (0.046%) test group, 24 patients

OCl [HOCl, hypochlorous acid]
% Reduction (Enterovirus-71 (EV-71)): 99.998%
Log Reduction (Enterovirus-71 (EV-71)): 4.83
% Reduction (Klebsiella oxytoca): 99.99%
Log Reduction (Klebsiella oxytoca): >5.50 Log10
% Reduction (Escherichia coli): 99.99%
Log Reduction (Escherichia coli): >6.59 Log10
adverse effects to the host cells (host cells): no adverse effects to the host cells
efficacy [1]: 99.999%
LD50 (Acute Oral Toxicity): > 5000 mg/kg
Acute Lethal Dose (Acute Dermal Toxicity): > 5000 mg/kg body weight for males
% Reduction (S. pyogenes [2]): >99.99%
Log Reduction (S. pyogenes [2]): >4.97Log10
USP <51> Antimicrobial Effectiveness Testing outcome [3]: meets all requirements of USP <51> Antimicrobial Effectiveness Testing
% Reduction (Human papilloma virus): 99.99%
Log Reduction (Human papilloma virus): >6.0 Log10
% Reduction (S. pyogenes [4]): 99.99%
Log Reduction (S. pyogenes [4]): >6.12 Log10
% Reduction (Candida albicans): 99.99%
Log Reduction (Candida albicans): >5.98 Log10
rashes from irritation [5, 9]: two
rashes from irritation, increase [5, 9]: 8.3%
total infections [5, 9]: three
total infections, increase [5, 9]: 13.5%
urinary tract infection [5, 9]: one
urinary tract infection, increase [5, 9]: 4.2%
yeast infections [5, 9]: zero
reported contact-to-contact STIs ([5]; HOCl (0.046%) test group, 24 patients, 85% confidence level): zero
change of the pH of the vagina ([5]; all 47 patients): No significant change
% Reduction (Herpes Simplex): 99.999%
Log Reduction (Herpes Simplex): >5.35 Log10
% Reduction (Salmonella enteritidis): 99.999%
Log Reduction (Salmonella enteritidis): >6.4 Log10
interference with antibiotics administered orally [6]: No interference with antibiotics administered orally
local infection rate for all ulcers [6]: Decreased the local infection rate for all ulcers
closing index for venous ulcers ([6]; at 6 months): 97%
closure of mixed ulcers ([6]; even when a surgical procedure was required): ≤ 75%
recurrence rate ([6]; ulcers): 2.7 % a year
% Reduction (Enterococcus. faecium): 99.99%
Log Reduction (Enterococcus. faecium): >6.21 Log10
% Reduction (K. pneumoniae - ESBL): 99.999%
Log Reduction (K. pneumoniae - ESBL): >5.76 Log10
% Reduction (P. aeruginosa): 99.999%
Log Reduction (P. aeruginosa): >5.96 Log10
% Reduction (Enterobacter aerogenes): 99.999%
Log Reduction (Enterobacter aerogenes): >5.90 Log10
% Reduction (K. oxytoca): 99.999%
Log Reduction (K. oxytoca): >5.50 Log10
% Reduction (A. baumanii): 99.999%
Log Reduction (A. baumanii): >6.15 Log10
% Reduction (E. faecium): 99.999%
Log Reduction (E. faecium): >5.32 Log10
% Reduction (K. pneumoniae NDM-1): 99.999%
Log Reduction (K. pneumoniae NDM-1): >5.59 Log10
mortalities ([7]; 90 days, 1000 mg/Kg Body weight, Wistar Rats): No mortalities, considered
toxicity assessment ([7]; rat, in vivo, 1000 mg/kg): non-toxic
% Reduction [8]: 99.9999%
Log Reduction [8]: 7.53
% Reduction (E. coli NDM-1): 99.999%
Log Reduction (E. coli NDM-1): >5.47 Log10
% Reduction (Staphylococcus aureus): 99.999%
Log Reduction (Staphylococcus aureus): >6.1 Log10
